Experimental data from patent publication US6475502B1, “Kits containing cyanoacrylate compositions comprising an antimicrobial agent” (Flowers Park Ltd., priority 1997, dated 2002).
Structures can show the parent of a compound that is named as a salt. Where two headings read alike, the source gives them in different places.

Experiments:
[1] = Solubility or suspendability of the antimicrobial agent in the n-butyl cyanoacrylate composition
[2] = Premature polymerization (gel formation) of the cyanoacrylate composition after mixing with the antimicrobial agent; format: physicochemical; conditions: for Period over which the composition polymerized after mixing: 5 weight percent agent based on total weight of composition; for Compatibility with the cyanoacrylate composition: overall conclusion of Example 1, for tetracycline hydrochloride and hexachlorophene when mixed immediately prior to use

Compound	Soluble [1]	Soluble ([1]; in monomeric n-butyl cyanoacrylate with 100 ppm sulfur dioxide and 20 weight percent dioctyl phthalate, agent conc. per column Conc. (~20% iodine, 10% PVP-I2, 5% others))	Period over which the composition polymerized after mixing [2] [h]	Compatibility with the cyanoacrylate composition [2]
CC[C@H]1OC(=O)[C@H](C)[C@@H](O[C@H]2C[C@@](C)(OC)[C@@H](O)[C@H](C)O2)[C@H](C)[C@@H](O[C@@H]2O[C@H](C)C[C@H](N(C)C)[C@H]2O)[C@](C)(O)C[C@@H](C)C(=O)[C@H](C)[C@@H](O)[C@]1(C)O [Erythromycin, erythromycin]	no, gelled^1	–	–	–
O=C([O-])c1ccccc1-c1c2cc(Br)c(=O)cc-2oc2[c]([Hg+])c([O-])c(Br)cc12.[Na+].[Na+].[OH-] [Merbromin, merbromin]	–	no, gelled^1	–	–
II [elemental iodine (I2), elemental iodine]	partially	–	–	–
Oc1c(Cl)cc(Cl)c(Cl)c1Cc1c(O)c(Cl)cc(Cl)c1Cl [hexachlorophene]	–	–	~48	compatible
CN(C)[C@@H]1C(O)=C(C(N)=O)C(=O)[C@@]2(O)C(O)=C3C(=O)c4c(O)cccc4[C@@](C)(O)[C@H]3C[C@@H]12 [tetracycline hydrochloride]	–	–	~48	compatible
